The test system of test [1] is aortic elastin. Briefly: 3H-elastin cleavage assay, aortic elastin. Format: biochemical. As to the method: (§1) FIG. 2: granzyme B degrades elastin in vitro. Granzyme B was incubated with ^3H-elastin for 7 days at room temperature. Elastase was incubated with ^3H-elastin for 2 hours. Supernatants containing the soluble elastin cleavage fragments were collected and counted. Data is represented as fold increase in radioactivity over the control (elastin only). (n=2)
(§2) Tritiated elastin was prepared with the modifications as described in Banda, M. J. and Werb, Z. (1981) Biochem J 193: 589-605 and Gordon, S., Werb, Z. and Cohn, Z. A. (1976) in In Vitro Methods in Cell Mediated and Tumor Immunity, eds. Bloom, B. R. and David, J. R. (Academic Press, New York), pages 349-350. 1 mg of skin or aortic elastin was diluted in 1 ml dH2O and pHed to 9.2. 1 mCi NaB3H4 (PerkinElmer, Waltham Mass.) and 2 mg of non-radioactive […] (Sigma, St. Louis, Mo.) was added. After 2 hours of incubation, the pH was adjusted to 3.0 and the elastin was incubated for an additional 30 minutes. The elastin was centrifuged for 3 minutes at 5000×g and the pellet was repeatedly washed to remove excess NaB3H4. […] The radioactivity of the soluble, cleaved elastin fragments in the supernatant was counted in Ready Safe Scintillation Fluid (Beckman-Coulter, Fullerton, Calif.). The radioactivity of the cleaved, soluble elastin fragments was 4.8 times and 2.7 times higher than background for skin and aortic elastin, respectively (FIG. 2).

The test system of test [2] is skin elastin. In words: 3H-elastin cleavage assay, skin elastin. Format: biochemical. Here is the method:
as §1, §2

The mark [3] stands for this setting: 25 μg elastase, 2 hours, positive control.
[4] abbreviates: 0.15 mg 3H-elastin, granzyme B 0.75 μg added 5 times, room temperature, 7 days.

For elastase, the “radioactivity increase over background” value in test [1] (setting [3]) was determined as 7.7 fold; in test [2] (setting [3]), 14.9 fold.

With “granzyme B: serine protease that is capable of cleaving elastin and other extracellular proteins”, the “radioactivity of the cleaved, soluble elastin fragments, higher than background” value in test [1] (setting [4]) was 2.7 times; in test [2] (setting [4]), 4.8 times.

The values above are taken from patent US20120171144A1, “METHODS OF TREATING, REDUCING AND INHIBITING THE APPEARANCE OF AGEING IN THE SKIN” (priority 2006, published 2012).
